What was measured:
system Xc^− [1] = biological target: T1, system Xc^− (Homo sapiens, UniProt Q9UPY5); test: Cystine-induced glutamate release assay; assay type: cell-based; set-up: endogenous in cells; host or cells: H4 cells; conditions: H4 cells, sodium-free HEPES buffer, 50 μM L-Cystine, 2 hours, Amplex Red glutamate readout; for IC50: read-out: pIC50 Cystine-induced glutamate release assay (converted)
T1 sequence (Q9UPY5 1-501): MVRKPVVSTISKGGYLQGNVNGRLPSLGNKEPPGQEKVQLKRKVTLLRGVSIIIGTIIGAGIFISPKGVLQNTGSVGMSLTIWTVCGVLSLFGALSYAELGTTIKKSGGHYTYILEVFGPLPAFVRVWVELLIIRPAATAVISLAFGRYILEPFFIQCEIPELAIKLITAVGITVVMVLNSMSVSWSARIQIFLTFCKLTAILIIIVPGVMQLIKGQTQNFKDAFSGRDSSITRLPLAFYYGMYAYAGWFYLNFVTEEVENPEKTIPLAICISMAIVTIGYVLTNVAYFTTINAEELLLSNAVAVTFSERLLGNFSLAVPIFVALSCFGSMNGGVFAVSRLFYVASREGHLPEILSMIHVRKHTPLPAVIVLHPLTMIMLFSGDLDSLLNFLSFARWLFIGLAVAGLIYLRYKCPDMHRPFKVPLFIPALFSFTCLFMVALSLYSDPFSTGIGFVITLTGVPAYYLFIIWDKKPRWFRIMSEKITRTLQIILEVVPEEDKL
T1 sequence (P08195 1-529 partner): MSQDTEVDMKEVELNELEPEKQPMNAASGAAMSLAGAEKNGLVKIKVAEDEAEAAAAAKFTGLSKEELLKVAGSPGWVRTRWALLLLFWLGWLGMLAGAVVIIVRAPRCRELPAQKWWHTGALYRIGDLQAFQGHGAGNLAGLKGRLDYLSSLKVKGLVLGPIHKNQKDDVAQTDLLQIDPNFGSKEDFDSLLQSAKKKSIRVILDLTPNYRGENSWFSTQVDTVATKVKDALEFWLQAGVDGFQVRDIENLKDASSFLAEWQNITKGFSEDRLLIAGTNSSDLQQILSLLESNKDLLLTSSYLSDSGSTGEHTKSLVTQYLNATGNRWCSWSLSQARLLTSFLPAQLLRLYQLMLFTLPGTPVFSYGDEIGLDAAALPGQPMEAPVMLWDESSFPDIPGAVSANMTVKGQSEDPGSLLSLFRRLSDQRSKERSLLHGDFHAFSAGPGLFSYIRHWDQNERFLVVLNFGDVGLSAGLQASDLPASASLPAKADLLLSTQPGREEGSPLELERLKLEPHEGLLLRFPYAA
Method in brief: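 H4 cells in sodium-free HEPES buffer (pH 7.4), 2 days after plating; glutamate release induced with 50 μM L-cystine plus compound (1% DMSO), 2 h at 37 °C. Supernatant glutamate measured by Amplex Red fluorescence; IC50/pIC50 derived between 1% DMSO and 50 μM erastin controls.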

system Xc^− [2] = biological target: T1, system Xc^−; test: [^14C]L-Cystine uptake assay; assay type: cell-based; set-up: endogenous in cells; host or cells: H4 cells; conditions: H4 cells, sodium-free HEPES buffer, 0.5 μM L-[14C]Cystine and 4.5 μM L-Cystine, 1 hour at 37° C.; for IC50: read-out: pIC50 [^14C] L-Cystine uptake assay (converted)
Method in brief: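 H4 cells at 5×10^4 cells/well in sodium-free HEPES buffer were preincubated 15 min with compounds (1% DMSO). Uptake of 0.5 μM [14C]L-cystine plus 4.5 μM unlabelled L-cystine ran 1 hour at 37° C on scintillating plates. IC50 was set between 1% DMSO and 50 μM Erastin controls and expressed as pIC50.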

Row | SMILES | IC50 (system Xc^− [1]) | IC50 (system Xc^− [2]) | pIC50 Cystine-induced glutamate release assay (system Xc^− [1]) | pIC50 [^14C] L-Cystine uptake assay (system Xc^− [2])
1 | COc1cc2c(c(F)n1)-c1ncccc1C(C)C(=O)N2CC(=O)Nc1ccc(Cl)c(F)c1 (single isomer, unassigned) [#413, N-(4-chloro-3-fluoro-phenyl)-2-[15-fluoro-13-methoxy-8-methyl-9-oxo-3,10,14-triazatricyclo[9.4.0.0^2,7]pentadeca-1(11),2,4,6,12,14-hexaen-10-yl]acetamide] | 39.8 to 100 nM | 15.8 to 39.8 nM |  | 
2 | COc1nc(C)cc2c1-c1cccnc1CC(=O)N2CC(=O)Nc1ccc(C(F)F)cc1 [#83, N-[4-(difluoromethyl)-phenyl]-2-(3-methoxy-5-methyl-9-oxo-4,8,12-triazatricyclo[9.4.0.0^2,7]pentadeca-1(11),2,4,6, 12,14-hexaen-8-yl)acet-amide] | < 15.8 nM | < 15.8 nM |  | 
3 | Cc1cc2c(c(Cl)n1)-c1ccnn1CC(=O)N2CC(=O)Nc1ccc(C(F)(F)F)cc1 [#100, 2-(14-chloro-12-methyl-8-oxo-5,6,9,13-tetrazatricyclo[8.4.0.0^2,6]tetradeca-1(14),2,4,10,12-pentaen-9-yl)-N-[4-(trifluoromethyl)phenyl]acetamide] | 39.8 to 100 nM | 39.8 to 100 nM |  | 
4 | CC1C(=O)N(CC(=O)Nc2ccc(Cl)c(F)c2)c2cc(N(C)CCN(C)C)nc(F)c2-c2cccnc21 (single isomer, unassigned) [#266, N-(4-chloro-3-fluoro-phenyl)-2-[5-[2-(dimethylamino)ethyl-methyl-amino]-3-fluoro-10-methyl-9-oxo-4,8,12-triazatricyclo[9.4.0.0^2,7]pentadeca-1(15),2,4,6,11,13-hexaen-8-yl]acetamide] | 15.8 to 39.8 nM | 15.8 to 39.8 nM |  | 
5 | Cc1ccc2c(n1)CC(=O)N(CC(=O)Nc1ccc(Cl)c(F)c1)c1cc(C)c(C)cc1-2 [#4, N-(4-chloro-3-fluoro-phenyl)-2-(3,9,10-trimethyl-6-oxo-5-H-pyrido[2,3-d][1]benzazepin-7-yl)acetamide] | 100 to 501 nM | 100 to 501 nM |  | 
6 | O=C(CN1C(=O)Cc2cc(F)ccc2-c2c1ccnc2Cl)Nc1ccc(C(F)(F)F)cc1 (single isomer, unassigned) [#193, Atropisomer aR or aS of 2-(1-chloro-9-fluoro-6-oxo-7H-pyrido[4,3-d][3]benzazepin-5-yl)-N-[4-(trifluoromethyl)phenyl]acetamide] |  |  | C (about 7.40 < pIC50 ≤ about 7.80) | D (plC50 > about 7.80)
7 | COc1cc2c(c(OC)n1)-c1cccnc1C(C)C(=O)N2CC(=O)Nc1ccc(C(F)F)cc1 (single isomer, unassigned) [#335, N-[4-(difluoromethyl)phenyl]-2-[3,5-dimethoxy-10-methyl-9-oxo-4,8,12-triazatricyclo[9.4.0.0^2,7]pentadeca-1(15),2(7),3,5,11,13-hexaen-8-yl]acetamide] | < 15.8 nM | < 15.8 nM |  | 
8 | Cc1cc2c(n(C)c1=O)-c1cccnc1[C@@H](C)C(=O)N2CC(=O)Nc1ccc(C(F)(F)F)cc1 (single isomer, unassigned) [#208, Enantiomer (10S) or (10R) of N-[4-(trifluoromethyl)phenyl]-2-[3,5,10-trimethyl-4,9-dioxo-3,8,12-triazatricyclo[9.4.0.0^2,7]pentadeca-1(11),2(7),5,12,14-pentaen-8-yl]acetamide] | < 15.8 nM | < 15.8 nM |  | 
9 | Cc1cc2c(c(Cl)n1)-c1cncnc1C(C)C(=O)N2CC(=O)Nc1ccc(Cl)c(F)c1 (single isomer, unassigned) [#220, Enantiomer (8S) or (8R) of 2-[15-chloro-8,13-dimethyl-9-oxo-4,6,10,14-tetrazatricyclo[9.4.0.0^2,7]pentadeca-1(15),2,4,6,11,13-hexaen-10-yl]-N-(4-chloro-3-fluoro-phenyl)acetamide] | < 15.8 nM | < 15.8 nM |  | 
10 | Cc1cc2c(c(F)n1)-c1cccnc1C(CO)C(=O)N2CC(=O)Nc1ccc(C(F)F)cc1 (single isomer, unassigned) [#222, Enantiomer (10S) or (10R) of N-[4-(difluoromethyl)phenyl]-2-[3-fluoro-10-(hydroxymethyl)-5-methyl-9-oxo-4,8,12-triazatricyclo[9.4.0.0^2,7]pentadeca-1(15),2(7),3,5,11,13-hexaen-8-yl]acetamide] | 15.8 to 39.8 nM | 39.8 to 100 nM |  | 
11 | COc1cc2c(c(OC)n1)-c1cccnc1C(C)C(=O)N2CC(=O)Nc1ccc(C(F)(F)F)nc1 (single isomer, unassigned) [#337, 2-[3,5-dimethoxy-10-methyl-9-oxo-4,8,12-triazatricyclo[9.4.0.0^2,7]pentadeca-1(15),2(7),3,5,11,13-hexaen-8-yl]-N-[6-(trifluoromethyl)-3-pyridyl]acetamide] | 15.8 to 39.8 nM | 15.8 to 39.8 nM |  | 
12 | Cc1ncc2c(n1)C(C)C(=O)N(CC(=O)Nc1ccc(Cl)c(F)c1)c1cc(Cl)cc(F)c1-2 (single isomer, unassigned) [#373, 2-[9-chloro-11-fluoro-3,5-dimethyl-6-oxo-5H-pyrimido[4,5-d][1]benzazepin-7-yl]-N-(4-chloro-3-fluoro-phenyl)acetamide] | 15.8 to 39.8 nM | 15.8 to 39.8 nM |  | 
13 | Cc1cc2c(cn1)-c1cccnc1C(C)C(=O)N2CC(=O)Nc1ccc(C(F)F)cc1 (single isomer, unassigned) [#250, Enantiomer (10S) or (10R) of N-[4-(difluoromethyl)phenyl]-2-[5,10-dimethyl-9-oxo-4,8,12-triazatricyclo[9.4.0.0^2,l]pentadeca-1(15),2,4,6,11,13-hexaen-8-yl]acetamide] |  |  | C (about 7.40 < pIC50 ≤ about 7.80) | B (about 7.00 < pIC50 ≤ about 7.40)
14 | Cc1cc2c(cn1)-c1cncnc1C(C)C(=O)N2CC(=O)Nc1ccc(Cl)c(F)c1 (single isomer, unassigned) [#369, N-(4-chloro-3-fluoro-phenyl)-2-[8,13-dimethyl-9-oxo-4,6,10,14-tetrazatricyclo[9.4.0.0^2,7]pentadeca-1(15),2,4,6,11,13-hexaen-10-yl]acetamide] | 15.8 to 39.8 nM | 15.8 to 39.8 nM |  | 
15 | O=C(CN1C(=O)C(O)c2ncc(F)cc2-c2c(F)cc(F)cc21)Nc1ccc(Cl)c(F)c1 (single isomer, unassigned) [#317, N-(4-chloro-3-fluoro-phenyl)-2-[2,9,11-trifluoro-5-hydroxy-6-oxo-5H-pyrido[2,3-d][1]benzazepin-7-yl]acetamide] | < 15.8 nM | 15.8 to 39.8 nM |  | 
16 | Cc1cc2c(c(F)n1)-c1cncc(F)c1CC(=O)N2CC(=O)Nc1ccc(C(F)(F)F)cc1 [#212, 2-(3,12-difluoro-5-methyl-9-oxo-4,8,14-triazatricyclo[9.4.0.0^2,7]pentadeca-1(11),2(7),3,5,12,14-hexaen-8-yl)-N-[4-(trifluoromethyl)phenyl]acetamide] | 100 to 501 nM | 15.8 to 39.8 nM |  | 
17 | O=C(CN1C(=O)Cc2ccccc2-c2cnc(Cl)cc21)Nc1ccc(C(F)(F)F)cc1 [#13, 2-(3-chloro-6-oxo-7H-pyrido[4,3-d][3]benzazepin-5-yl)-N-[4-(trifluoromethyl)phenyl]acetamide] | 100 to 501 nM | 39.8 to 100 nM |  | 
18 | Cc1cc2c(cc1C)N(CC(=O)Nc1ccc(C(F)(F)F)cc1)C(=O)Cc1ccncc1-2 [#24, 2-(9,10-dimethyl-6-oxo-5H-pyrido[4,3-d][1]benzazepin-7-yl)-N-[4-(trifluoromethyl)phenyl]acetamide] | 100 to 501 nM | 15.8 to 39.8 nM |  | 
19 | COC1C(=O)N(CC(=O)Nc2ccc(C(F)(F)F)cc2)c2cc(C)nc(Cl)c2-c2cccnc21 (centres unmarked) [#159, 2-(3-chloro-10-methoxy-5-methyl-9-oxo-4,8,12-triazatricyclo[9.4.0.0^2,7]pentadeca-1(11),2(7),3,5,12,14-hexaen-8-yl)-N-[4-(trifluoromethyl)phenyl]acetamide] | 39.8 to 100 nM | 15.8 to 39.8 nM |  | 

— patent publication US20260217708A1, “FUSED BENZAZEPINE DERIVATIVES FOR USE IN THE TREATMENT OF CANCER AND EPILEPSY” (UCB BIOPHARMA SRL, priority 2023, published 2026)
